Results from patent publication US20190337921A1, “TETRASUBSTITUTED ALKENE COMPOUNDS AND THEIR USE” (Eisai R&D Management Co., Ltd., priority 2016, published 2019).

Legend:
[1] = tested on: MCF7-WT cells (WT ER, MCF7.6); assay: In vitro proliferation (viability) assay, CellTiter-Glo, MCF7-WT; assay type: cell-based; details: Homo sapiens, CTG on day 6 compared to day 0, read-out: WT ER CTGlo MCF7.6 GI50 Mean
Experimental: (§1) MCF7 BUS cells (Coser, et al., (2003) PNAS 100(24): 13994-13999) were maintained in Dulbecco's Modified Eagle Medium supplemented with 10%/o FBS, 4 mM L-glutamine and 1× non-essential amino acids. Lenti-X 293T cells (Clontech, Cat #632180) were routinely cultured in Dulbecco's Modified Eagle Medium supplemented with 10% FBS.
(§2) The QuikChange II XL Site-Directed Mutagenesis Kit (Agilent Technologies, Cat #200523) was used to generate Y537S, Y537C, Y537N and D538G mutations within the ERα exon 8. […]
(§3) MCF7-WT and —Y537S cells were seeded at 1500 cells/well in black-walled 96-well plates (assay plates. Costar, Cat #3904). In parallel, cells were also seeded in a separate 96-well plate (8 wells/cell line, control plate) for which a CTG (CellTiter-Glo® Luminescent Viability Assay, Promega, Cat #G7572) was measured the following day (day 0 reading). The day 0 reading was used for the GI50 calculation at the termination of the experiment. […] CTG was measured and compared to day 0 readings from control plate to assess GI50.

[2] = tested on: MCF7-Y537S cells (Y537S ER, MCF7.7); assay: In vitro proliferation (viability) assay, CellTiter-Glo, MCF7-Y537S; assay type: cell-based; details: Homo sapiens, CTG on day 6 compared to day 0, read-out: Y537S ER CTGlo MCF7.7 GI50 Mean
Experimental: as §1, §2, §3

[3] = tested on: MCF7 cells with ectopic expression of ERα Y537S/N/C, D538G; assay: In vitro proliferation of wild-type and mutant ER-bearing MCF7 lines with clinical therapies (FIG. 1); assay type: cell-based, human
Experimental: 48 h post-transfection, virus containing media was filtered and added to MCF7 cells in the presence of 8 μg/ml polybrene overnight. Two days following infection, cells were placed under selection with 10 μg/ml blasticidin for 2 weeks for stable expression.
In parallel, cells were also seeded in a separate 96-well plate (8 wells/cell line, control plate) for which a CTG (CellTiter-Glo® Luminescent Viability Assay, Promega, Cat #G7572) was measured the following day (day 0 reading). The day 0 reading was used for the GI50 calculation at the termination of the experiment. The day following seeding, compounds were added to assay plates. Briefly, a 1:4 serial dilution was prepared in DMSO at 200× final concentration for a total of 10 concentrations (9 dilutions containing compound and one is DMSO only). Serially diluted compounds were pipetted into medium to prepare a compound-medium mix at 10× final concentration. 10 μl of compound-medium mix was added to MCF7-WT and —Y537S cells at 3 wells/concentration (triplicate for each concentration). On day 3, media-compound was removed and replaced with fresh media/compound as described above. On day 6. CTG was measured and compared to day 0 readings from control plate to assess GI50.

Row | GI50 [1] [nM] | GI50 [2] [nM] | Compound | Resistance of ERα mutant-bearing MCF7 lines relative to control lines [3]
1 | 1.75 | 27.5 | CC/C(=C(/c1ccc(OCCNC/C=C/C(=O)N(C)C)cc1)c1ccc2[nH]ccc2c1)c1ccccc1 [Compound 102, (E)-4-(2-(4-((E)-1-(1H-indol-5-yl)-2-phenylbut-1-enyl)phenoxy)ethylamino)-N,N-dimethylbut-2-enamide] | 
2 |  |  | C[C@]12CC[C@@H]3c4ccc(O)cc4C[C@@H](CCCCCCCCC[S+]([O-])CCCC(F)(F)C(F)(F)F)[C@H]3[C@@H]1CC[C@@H]2O (some centres unmarked) [fulvestrant] | phenotypic resistance
3 |  |  | O=C(c1ccc(OCCN2CCCCC2)cc1)c1c(-c2ccc(O)cc2)sc2cc(O)ccc12 [raloxifene] | phenotypic resistance
4 |  |  | CC/C(=C(\c1ccccc1)c1ccc(OCCN(C)C)cc1)c1ccccc1 [tamoxifen] | phenotypic resistance
